Measurements reported in the supplement of paper PMC4862054.

Legend:
Settings in all cases: incubation time: 72 h
HCC1599 [1] = assay: normalised response (% of control), CellTox Green; higher = less cell death (100 = DMSO, 0 = benzethonium chloride kill control)
How it was run: (§1)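 Compound was dispensed into 384-well plates at 5 concentrations in 10-fold steps spanning a 10,000-fold range specific to that compound. Breast cancer cell lines were added as 20 µl suspension and left for 72 h before CellTox Green fluorescence (485/520 nm) and then CellTiter-Glo luminescence, read after 10 min at room temperature. Each reported value is the normalised signal at one concentration, with 0.1 % DMSO set at 100 and a positive kill control at 0 on each plate.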

CAL-51 [2] = assay: as above
How it was run: as §1

HDQ-P1 [3] = assay: as above
How it was run: as §1

CAL-120 [4] = assay: as above
How it was run: as §1

Hs578T [5] = assay: as above
How it was run: as §1

MFM-223 [6] = assay: as above
How it was run: as §1

CAL-148 [7] = assay: as above
How it was run: as §1

MDA-MB-468 [8] = assay: as above
How it was run: as §1

HCC1143 [9] = assay: as above
How it was run: as §1

DU-4475 [10] = assay: as above
How it was run: as §1

BT-474 [11] = assay: as above
How it was run: as §1

MDA-MB-453 [12] = assay: as above
How it was run: as §1

MDA-MB-231 [13] = assay: as above
How it was run: as §1

CAL-85-1 [14] = assay: as above
How it was run: as §1

MDA-MB-436 [15] = assay: as above
How it was run: as §1

BT-549 [16] = assay: as above
How it was run: as §1

MCF-10A [17] = assay: as above
How it was run: as §1

HCC1599 [18] = assay: normalised response (% of control), CellTiter-Glo; higher = more viable cells (100 = DMSO, 0 = benzethonium chloride kill control)
How it was run: as §1

CAL-51 [19] = assay: as above
How it was run: as §1

HDQ-P1 [20] = assay: as above
How it was run: as §1

CAL-120 [21] = assay: as above
How it was run: as §1

Hs578T [22] = assay: as above
How it was run: as §1

MFM-223 [23] = assay: as above
How it was run: as §1

CAL-148 [24] = assay: as above
How it was run: as §1

MDA-MB-468 [25] = assay: as above
How it was run: as §1

HCC1143 [26] = assay: as above
How it was run: as §1

SK-BR-3 = assay: as above
How it was run: as §1

DU-4475 [27] = assay: as above
How it was run: as §1

BT-474 [28] = assay: as above
How it was run: as §1

MDA-MB-453 [29] = assay: as above
How it was run: as §1

MDA-MB-231 [30] = assay: as above
How it was run: as §1

CAL-85-1 [31] = assay: as above
How it was run: as §1

MDA-MB-436 [32] = assay: as above
How it was run: as §1

HCC1937 [33] = assay: as above
How it was run: as §1

BT-549 [34] = assay: as above
How it was run: as §1

MCF-10A [35] = assay: as above
How it was run: as §1

HCC1937 [36] = assay: normalised response (% of control), CellTox Green; higher = less cell death (100 = DMSO, 0 = benzethonium chloride kill control)
How it was run: as §1

Structure (SMILES)	normalised response (HCC1599 [1]) [%]	normalised response (CAL-51 [2]) [%]	normalised response (HDQ-P1 [3]) [%]	normalised response (CAL-120 [4]) [%]	normalised response (Hs578T [5]) [%]	normalised response (MFM-223 [6]) [%]	normalised response (CAL-148 [7]) [%]	normalised response (MDA-MB-468 [8]) [%]	normalised response (HCC1143 [9]) [%]	normalised response (DU-4475 [10]) [%]	normalised response (BT-474 [11]) [%]	normalised response (MDA-MB-453 [12]) [%]	normalised response (MDA-MB-231 [13]) [%]	normalised response (CAL-85-1 [14]) [%]	normalised response (MDA-MB-436 [15]) [%]	normalised response (BT-549 [16]) [%]	normalised response (MCF-10A [17]) [%]	normalised response (HCC1599 [18]) [%]	normalised response (CAL-51 [19]) [%]	normalised response (HDQ-P1 [20]) [%]	normalised response (CAL-120 [21]) [%]	normalised response (Hs578T [22]) [%]	normalised response (MFM-223 [23]) [%]	normalised response (CAL-148 [24]) [%]	normalised response (MDA-MB-468 [25]) [%]	normalised response (HCC1143 [26]) [%]	normalised response (SK-BR-3) [%]	normalised response (DU-4475 [27]) [%]	normalised response (BT-474 [28]) [%]	normalised response (MDA-MB-453 [29]) [%]	normalised response (MDA-MB-231 [30]) [%]	normalised response (CAL-85-1 [31]) [%]	normalised response (MDA-MB-436 [32]) [%]	normalised response (HCC1937 [33]) [%]	normalised response (BT-549 [34]) [%]	normalised response (MCF-10A [35]) [%]	normalised response (HCC1937 [36]) [%]
C=CC(=O)Nc1cc2c(Nc3ccc(F)c(Cl)c3)ncnc2cc1OCCCN1CCOCC1 [Canertinib] (1000 nM)	114	93.2	97.2	97.7	109	106	100	140	102	104	83.2	102	104	73.3	88.9	135	80.4	81.2	62.2	67.4	94.2	104	95	75.3	62	91.5	27.2	101	76.8	73.6	78	49.2	90.5	88.1	80.1	32.2	
O=C(O)C1(C(=O)O)CCC1.[NH2-].[NH2-].[Pt+2] [Carboplatin] (1000 nM)	104	106	100	104	103	89.6	105	143	101	107	97.7	111	106	117	95.4	62	115	96.4	108	95.4	95.3	95.1	101	96.5	100	101	103	93.9	100	97.6	94.4	95.7	98.3	95	94.2	105	113
O=C(/C=C/c1cccnc1)NCCCCC1CCN(C(=O)c2ccccc2)CC1 [Daporinad] (100 nM)	78.1	105	103	91.2	20	70.9	95	125	104	98.8	98.6	104	112	101	103	105	98.1	0.54	102	19.1	17	8.08	4.38	69	0.85	14.3	107	4.65	28.7	14.3	25.8	16	54	21.3	100	11.1	27.6
Nc1ccccc1NC(=O)c1ccc(CNC(=O)OCc2cccnc2)cc1 [Entinostat] (1000 nM)	90.1	70.2	109	102	75	90.1	98.3	65.9		99.9	99.8	102	108	107	86.4	114	90.1	83.6	45.2	93.5	97	86.8	98.2	93.7	91.4	98.1	88.8	102	92.4	89.8	93.2	105	90.5	87.8	62.1	142	116
CCN(CC)CCCC(C)Nc1c2ccc(Cl)cc2nc2ccc(OC)cc12 (stereo unspecified) [Mepacrine] (5000 nM)	98	103	111	101	84.3	97.6	71.8	89.3		102	97.2	107	81.8	106	99.8	57.4	99.3	101	113	112	110	104	92.5	88.7	94.4	98	102	97.3	104	102	98.1	101	103	101	93	108	105
O=C(O)C(=O)O.[NH-][C@@H]1CCCC[C@H]1[NH-].[Pt+2] [Oxaliplatin] (1000 nM)	93.9	108	102	102	63.9	85.6		157	101	98.1	95.9	106	98.2	102	95.7	121	107	100	128	106	96.9	104	92.3	82.5	91.1	95.5	92.8	94.4	97.7	89.2	97	95.9	106	99.5	105	96.5	97.7
Cc1cnc(NC(=O)Nc2cc(Br)c(C)cc2OC[C@@H]2CNCCO2)cn1 [Rabusertib] (100 nM)	103	85.5	80.4	99.9	55.6		108	128	97.3	106	102	106	118	102	110	123	105	108	72.5	105	98.1	98.7	100	107	101	106	109	99.1	103	88.1	104	99	113	92.4	104	112	128
CNC(=O)c1cc(Oc2ccc(NC(=O)Nc3cc(C(C)(C)C)nn3-c3ccc4ncccc4c3)c(F)c2)ccn1 [Rebastinib] (100 nM)	99.2	105	94.4	101	98.8	95.3	84	118	113	103	98.6	101	90.2	103	97.3	95		110	120	114	92.2	114	65.3	105	113	110	104	101	97	101	90	101	110	108	111	119	112
COc1cc2nccc(Oc3ccc(NC(=O)Nc4cc(C)on4)c(Cl)c3)c2cc1OC [Tivozanib] (1000 nM)	104	87.7	92.8	96.6	93	102	104	138	89.3	96.5	101		110	95.5	70.6	129	105	92.9	90.8	98.6	93.1	104	60.3	103	89.5	95.9	88.5	101	81.3	87.7	89	103	101	95.2	111	99.2	134
